Assay results taken from patent US20040086901A1, “Database for analyzing gene function and method of analyzing gene function by dspa” (priority 2000, published 2004).

How the values were obtained:
Assay type in all cases: cell-based, mouse
[1] = test system: NIH3T3 cells overexpressing PKCalpha-KN; experiment: MTT cell viability, PKCalpha-KN overexpressing cells vs parental line; conditions: 3 to 4 days
Protocol: (§1) With regard to the function-known genes, the genes shown in the left column of Table 2 were used. With regard to the drugs, those shown in Table 1 were dissolved in DMSO to an extent of 100-fold of the maximum concentration for the search of the drugs and used. With regard to the cells, incubated NIH3T3 or ras-NIH3T3 cells were used.
(§2) Full-length cDNA of each function-known genes was incorporated into an expression vector (pRc-CMV, etc.) and transfected into NIH3T3 cells by a common method. Transformed cells were isolated using the resistance to G-418 as an index and the expression of the transfected gene in each cell was investigated by Western blotting method to select a highly expressing line.
(§3) Cell viabilities were measured according to the following procedures.
(§4) 1) From the 2nd to the 11th rows of a 96-well plate were filled with DMEM (50 μl). The 12th row was filled with 100 μl of DMEM.
(§5) 2) The 1st row was filled with 98 μl of DMEM.
(§6) 3) Drugs (2 μl each) were added into the 1st row.
(§7) 4) Continuous double-dilution was conducted from the 1st to the 9th rows. Fifty μl were taken out from the 9th row and discarded. The plate was preserved in a CO2 incubator.
(§8) 5) Cells (each high-expressing cells and the parental cell line) were detached from the medium using a trypsin solution, suspended in 10% CS-DMEM and transferred to a test tube and cell numbers (cell/ml) were counted.
(§9) 6) The cells were diluted to a concentration of 1×10^5 cells/ml, and 50 μl of the cell suspension were added to the 1st to the 11th rows of the plate followed by gently stirring.
(§10) 7) The plate was transferred to the CO2 incubator and incubated for 3 to 4 days.
(§11) 8) MTT (5 mg/ml in PBS) (10 μl) was added to the 1st to the 12th rows of the plate and incubated in the CO2 incubator at 37° C. for 4 hours.
(§12) 9) A reaction stop solution (0.04N HCl in isopropanol) (150 μl) was added followed by mixing well and being allowed to stand at room temperature for about 2 hours.
(§13) 10) Coloration of formazan which was a metabolite of the MTT dye was measured using a microplate reader. The measurement wavelength was 574 nm and the reference wavelength was 655 nm. The 10th and the 11th rows of the plate were 100% controls and the 12th row was a 0% control.
(§14) As an index for the sensitivity of highly gene-expressing cells and the parental cell line to various drugs, each of the IC40 values thereof was specified and ratios of the IC40 values were calculated. […] After that, logarithmic values of ratios of IC40 values were calculated from each gene.

[2] = test system: NIH3T3 cells overexpressing JNK-DN; experiment: MTT cell viability, JNK-DN overexpressing cells vs parental line; conditions: JNK-DN high-expressing cells / parental cell line, 3 to 4 days
Protocol: as §1, §2, §3, §4, §5, §6, §7, §8, §9, §10, §11, §12, §13
(§15) As an index for the sensitivity of highly gene-expressing cells and the parental cell line to various drugs, each of the IC40 values thereof was specified and ratios of the IC40 values were calculated. FIG. 2 and FIG. 3 are the examples where ratios of IC40 values were calculated from a curve showing the dependency on the concentration of the chemical versus the viability. After that, logarithmic values of ratios of IC40 values were calculated from each gene.

[3] = test system: NIH3T3 cells overexpressing RhoA; experiment: MTT cell viability, RhoA overexpressing cells vs parental line; conditions: RhoA high-expressing cells / parental cell line, 3 to 4 days
Protocol: as §1, §2, §3, §4, §5, §6, §7, §8, §9, §10, §11, §12, §13, §15

[4] = test system: NIH3T3 cells overexpressing v-src; experiment: MTT cell viability, v-src overexpressing cells vs parental line; conditions: v-src high-expressing cells / parental cell line, 3 to 4 days
Protocol: as §1, §2, §3, §4, §5, §6, §7, §8, §9, §10, §11, §12, §13, §15

[5] = test system: NIH3T3 cells overexpressing cAMP-PK-CS; experiment: MTT cell viability, cAMP-PK-CS overexpressing cells vs parental line; conditions: cAMP-PK-CS high-expressing cells / parental cell line, 3 to 4 days
Protocol: as §1, §2, §3, §4, §5, §6, §7, §8, §9, §10, §11, §12, §13, §14

[6] = test system: NIH3T3 cells overexpressing HSP9O; experiment: MTT cell viability, HSP9O overexpressing cells vs parental line; conditions: HSP9O high-expressing cells / parental cell line, 3 to 4 days
Protocol: as §1, §2, §3, §4, §5, §6, §7, §8, §9, §10, §11, §12, §13, §15

[7] = test system: NIH3T3 cells overexpressing m-calpain; experiment: MTT cell viability, m-calpain overexpressing cells vs parental line; conditions: m-calpain high-expressing cells / parental cell line, 3 to 4 days
Protocol: as §1, §2, §3, §4, §5, §6, §7, §8, §9, §10, §11, §12, §13, §14

[8] = test system: NIH3T3 cells overexpressing CaMKIIa; experiment: MTT cell viability, CaMKIIa overexpressing cells vs parental line; conditions: CaMKIIa high-expressing cells / parental cell line, 3 to 4 days
Protocol: as §1, §2, §3, §4, §5, §6, §7, §8, §9, §10, §11, §12, §13, §14

[9] = test system: NIH3T3 cells overexpressing CP-antisense; experiment: MTT cell viability, CP-antisense cells vs parental line; conditions: 3 to 4 days
Protocol: as §1, §2, §3, §4, §5, §6, §7, §8, §9, §10, §11, §12, §13, §15

[10] = test system: NIH3T3 cells overexpressing erbB2; experiment: MTT cell viability, erbB2 overexpressing cells vs parental line; conditions: erbB2 high-expressing cells / parental cell line, 3 to 4 days
Protocol: as §1, §2, §3, §4, §5, §6, §7, §8, §9, §10, §11, §12, §13, §15

[11] = test system: NIH3T3 cells overexpressing p16/INK4A; experiment: MTT cell viability, p16/INK4A overexpressing cells vs parental line; conditions: p16/INK4A high-expressing cells / parental cell line, 3 to 4 days
Protocol: as §1, §2, §3, §4, §5, §6, §7, §8, §9, §10, §11, §12, §13, §15

[12] = test system: NIH3T3 cells overexpressing HSP4O; experiment: MTT cell viability, HSP4O overexpressing cells vs parental line; conditions: HSP4O high-expressing cells / parental cell line, 3 to 4 days
Protocol: as §1, §2, §3, §4, §5, §6, §7, §8, §9, §10, §11, §12, §13, §15

[13] = test system: NIH3T3 cells, TPA (PKC downreg); experiment: MTT cell viability, TPA (PKC downreg) cells vs parental line; conditions: 3 to 4 days
Protocol: as §1, §2, §3, §4, §5, §6, §7, §8, §9, §10, §11, §12, §13, §15

[14] = test system: NIH3T3 cells overexpressing PDGF-R; experiment: MTT cell viability, PDGF-R overexpressing cells vs parental line; conditions: PDGF-R high-expressing cells / parental cell line, 3 to 4 days
Protocol: as §1, §2, §3, §4, §5, §6, §7, §8, §9, §10, §11, §12, §13, §15

[15] = test system: NIH3T3 cells overexpressing ERK-DN; experiment: MTT cell viability, ERK-DN overexpressing cells vs parental line; conditions: ERK-DN high-expressing cells / parental cell line, 3 to 4 days
Protocol: as §1, §2, §3, §4, §5, §6, §7, §8, §9, §10, §11, §12, §13, §14

[16] = test system: NIH3T3 cells overexpressing caspase-3; experiment: MTT cell viability, caspase-3 overexpressing cells vs parental line; conditions: caspase-3 high-expressing cells / parental cell line, 3 to 4 days
Protocol: as §1, §2, §3, §4, §5, §6, §7, §8, §9, §10, §11, §12, §13, §14

[17] = test system: NIH3T3 cells overexpressing Ha-ras; experiment: MTT cell viability, drug sensitivity of Ha-ras overexpressing cells vs parental line; conditions: Ha-ras high-expressing cells / parental cell line, 3 to 4 days
Protocol: as §1, §2, §3, §4, §5, §6, §7, §8, §9, §10, §11, §12, §13, §14

[18] = test system: NIH3T3 cells overexpressing DAN; experiment: MTT cell viability, DAN overexpressing cells vs parental line; conditions: DAN high-expressing cells / parental cell line, 3 to 4 days
Protocol: as §1, §2, §3, §4, §5, §6, §7, §8, §9, §10, §11, §12, §13, §15

[19] = test system: NIH3T3 cells overexpressing Regucalcin; experiment: MTT cell viability, Regucalcin overexpressing cells vs parental line; conditions: Regucalcin high-expressing cells / parental cell line, 3 to 4 days
Protocol: as §1, §2, §3, §4, §5, §6, §7, §8, §9, §10, §11, §12, §13, §15

[20] = test system: NIH3T3 cells overexpressing Gluco-corticoid-R; experiment: MTT cell viability, Gluco-corticoid-R overexpressing cells vs parental line; conditions: Gluco-corticoid-R high-expressing cells / parental cell line, 3 to 4 days
Protocol: as §1, §2, §3, §4, §5, §6, §7, §8, §9, §10, §11, §12, §13, §14

[21] = PKCalpha-KN (first of two lines) high-expressing cells / parental cell line
[22] = PKCalpha-KN (second of two lines) high-expressing cells / parental cell line

Row | Structure (SMILES) | logarithmic value of ratio of IC40 values [1, 21] | logarithmic value of ratio of IC40 values [1, 22] | logarithmic value of ratio of IC40 values [2] | logarithmic value of ratio of IC40 values [3] | logarithmic value of ratio of IC40 values [4] | logarithmic value of ratio of IC40 values [5] | logarithmic value of ratio of IC40 values [6] | logarithmic value of ratio of IC40 values [7] | logarithmic value of ratio of IC40 values [8] | logarithmic value of ratio of IC40 values [9] | logarithmic value of ratio of IC40 values [10] | logarithmic value of ratio of IC40 values [11] | logarithmic value of ratio of IC40 values [12] | logarithmic value of ratio of IC40 values [13] | logarithmic value of ratio of IC40 values [14] | logarithmic value of ratio of IC40 values [16] | logarithmic value of ratio of IC40 values [17] | logarithmic value of ratio of IC40 values [18] | logarithmic value of ratio of IC40 values [19] | logarithmic value of ratio of IC40 values [20] | also measured
1 | C[C@@H]1C[C@@H]([C@H](O)CC2CC(=O)NC(=O)C2)C(=O)[C@@H](C)C1 [CHX, cycloheximide] | 0.30 | 0.29 | 0.00 | 0.14 | −0.32 | 0.23 | 0.07 | 0.22 | 0.04 | 0.00 | −0.64 | 0.04 | 0.00 | 0.00 | 0.51 | 0.10 | −0.19 | 0.72 | 0.08 |  | logarithmic value of ratio of IC40 values [15]: 0.08
2 | C=CC1=C(C)c2cc3[n-]c(cc4nc(cc5[n-]c(cc1n2)c(C)c5CCC(=O)O)C(CCC(=O)O)=C4C)c(C)c3C=C.[Cl-].[Cl-].[Sn+4] [SnPP] | −0.14 | 0.00 | −0.11 | 0.14 | −0.17 | 0.02 |  | −0.07 | 0.24 | 0.10 | −0.25 | −0.05 | 0.28 | −0.20 | −0.07 | −0.40 | 0.28 | −0.49 | 0.32 | 0.00 | logarithmic value of ratio of IC40 values [15]: 0.00
3 | Nc1nc2nc[nH]c2c(=S)[nH]1 [6-TG, 6-thioguanine] | 0.26 | 0.38 | 0.00 | 0.69 | 0.00 | 0.14 | 0.57 | 0.29 | 0.00 | 0.14 | −0.12 | 0.46 | 0.50 | 0.00 | 0.22 | 1.16 | −0.19 | 0.64 | 0.20 | 0.09 | 
4 | CN[C@@H]1C[C@H]2O[C@@](C)([C@@H]1OC)n1c3ccccc3c3c4c(c5c6ccccc6n2c5c31)C(=O)NC4 [Staurosporine] |  |  | 0.14 | 0.15 | −0.05 | −0.12 | 0.22 |  | 0.12 | −0.15 | 0.04 | −0.22 | 0.30 | −0.12 | 0.24 |  | 0.30 | 0.48 | −0.09 | −0.28 | 
5 | CC(C)(C)C(=O)Oc1ccc(S(=O)(=O)Nc2ccccc2C(=O)NCC(=O)O)cc1 [compound 5046] | 0.10 | −0.05 | −0.09 | 0.11 | 0.51 |  | 0.52 | −0.04 |  | −0.06 | 0.80 | 0.22 | −0.15 | −0.10 | 0.36 | 0.40 |  | 0.26 | −0.38 |  | 
